{"source": "patent US20140194321A1", "about": "(CELLOMICS, INC., priority 2013, published 2014)"}
{"tested_on": "U937 cells", "experiment": "High-content imaging skin sensitizing prediction assay: U937 cells treated 24 h with a range of compound concentrations, CD54 intensity per cell and cell number dose response curves qualified, decision matrix applied", "details": "qualified dose response curve (increasing/flat/decreasing) of CD54 intensity per cell; U937 cells, 24 hours compound treatment, range of concentrations", "text": "In step 160, the data corresponding to the different compound concentrations is normalized. In one embodiment, measurements generated from the vehicle-treated cell image analysis can be used. […] As such, a normalization of the data obtained from the compound-treated cells can be determined by subtracting the baseline response of the vehicle-treated cells from the measurements of the responses of the compound-treated cells. Measured values of the compound-treated cells that are below baseline levels can be notated as lacking a response, and can be ignored in further analysis, if desired.\nThis can be done by calculating a mean value for the measured target at each concentration level, taking into account all of the samples corresponding to the particular concentration level.\nFor example, mean values for gross markers can be computed for the number of cells using either the number of cell bodies or the number of nuclei detected. For specific markers, mean values can be computed for each of the features (e.g., CD54 (ICAM-1) intensity). […] Other mean values can also be used. In addition, other representative values can also be used for each concentration of the compound, such as a highest measured value, a lowest measured value, or other representative values.\nThis can be done by plotting on a graph the average value of the target for each concentration. […] Using the plotted points, a simple curve 170 can be generated, as shown. This simple curve represents the dose response curve.\nIn one embodiment, qualifying the dose response curve can be accomplished by categorizing the curve as “increasing,” “decreasing,” or “flat.”\nThe predefined range can be determined using a standard deviation value, a percentage of total range, or a percentage of highest value. […] In the experimental results, discussed below, the predefined range was determined using a percentage of the highest value for the curve.\nIn step 170, a decision matrix is applied to the qualified dose response of one or more of the measured parameters to predict skin sensitization. The qualified dose response of any of the measured cellular targets can be used. For example, the cellular targets used in the decision matrix can be selected from the gross markers, specific markers and/or the functional response of the cells. Using the selected properties, a decision matrix can be constructed based upon the expected behavior of the cell type in response to the compound used. The dose response curve behavior (e.g., “increasing,” “flat,” or “decreasing”) of the measured cellular properties can then be used to determine the prediction of sensitizing capability of the compound. In some embodiments, the decision matrix can also be used to determine if the compound is toxic.\nTo determine a predicted skin sensitivity of a tested compound, one simply finds the matrix location corresponding to both of the qualified dose responses determined for the tested compound, and the entry within that matrix location identifies the predicted skin sensitivity of the compound.\nThe compounds for which skin sensitivity is desired can then be introduced to the immune effector cells. For each concentration level of each compound, 100 μl of the 2× concentrated compound solution can be added to the corresponding wells. Similarly, 100 μl of vehicle solution can be added to the vehicle control wells and the 2× solution of the negative and positive controls can be added to the negative and positive control wells, respectively. The plate can then be incubated for 24 hours at 37° C. in 5% CO2.\nAfter incubation, the plate can be centrifuged for 5 minutes at 125×g. The media can then be aspirated from the wells after which 50 μl of pre-warmed (e.g., to 37° C.) 4% paraformaldehyde can be added to each well."}
{"compound": "CCOC(=O)c1ccccc1C(=O)OCC", "note": "[Diethyl Phthalate]", "CD54/Cell Result": "Decrease"}
{"compound": "CC(O)C(=O)O", "note": "(centres unmarked) [Lactic Acid]", "CD54/Cell Result": "Decrease"}
{"compound": "C=CC(=O)OCCO", "note": "[2hydroxyethylacrylate]", "CD54/Cell Result": "Increase"}
{"compound": "CC(C)=O", "note": "[Acetone]", "CD54/Cell Result": "Increase"}
{"compound": "CN(C)C=O", "note": "[DMF]", "CD54/Cell Result": "Increase"}
{"compound": "O=CC=O", "note": "[Glyoxal]", "CD54/Cell Result": "Increase"}
{"compound": "Butanol", "CD54/Cell Result": "Flat"}
{"compound": "OCC(O)CO", "note": "[Glycerol]", "CD54/Cell Result": "Flat"}
{"compound": "CC(C)=CCC/C(C)=C/CO", "note": "[Geraniol]", "CD54/Cell Result": "Increase"}
{"compound": "C[S+](C)[O-]", "note": "[DMSO]", "CD54/Cell Result": "Decrease"}
{"compound": "CCCCCCCCCCCCOS(=O)(=O)[O-].[Na+]", "note": "[Sodium Lauryl Sulfate]", "CD54/Cell Result": "Increase"}
{"compound": "CCCCCCCC(=O)O", "note": "[Octanoic Acid]", "CD54/Cell Result": "Increase"}
{"compound": "CCCCCCCC/C=C\\CCCCCCCC(=O)OCCOCC(OCCO)C1OCC(OCCO)C1OCCO", "note": "(centres unmarked) [Tween 80]", "CD54/Cell Result": "Decrease"}
{"compound": "Nc1ccccc1O", "note": "[2-aminophenol]", "CD54/Cell Result": "Increase"}
{"compound": "CCOc1cc(C=O)ccc1O", "note": "[Ethyl Vanillin]", "CD54/Cell Result": "Decrease"}
{"compound": "CC(O)CO", "note": "(centres unmarked) [Propylene Glycol]", "CD54/Cell Result": "Decrease"}
{"compound": "CC(C)O", "note": "[Isopropanol]", "CD54/Cell Result": "Decrease"}
{"compound": "O=Cc1ccccc1", "note": "[Benzylaldehyde]", "CD54/Cell Result": "Increase"}
{"compound": "N#CCCC(Br)(C#N)CBr", "note": "(centres unmarked) [2bromo-2bromomethylglutaronitrile]", "CD54/Cell Result": "Decrease"}
{"compound": "O=C(O)c1ccccc1O", "note": "[Salicylic Acid]", "CD54/Cell Result": "Decrease"}
{"compound": "NCCNc1ccccc1", "note": "[Phenylethylenediamine]", "CD54/Cell Result": "Decrease"}
{"compound": "CCO", "note": "[Ethanol]", "CD54/Cell Result": "Decrease"}
{"tested_on": "U937 cells", "experiment": "High-content imaging skin sensitizing prediction assay: U937 cells treated 24 h with a range of compound concentrations, CD54 intensity per cell and cell number dose response curves qualified, decision matrix applied", "details": "qualified dose response curve (increasing/flat/decreasing) of number of cells; U937 cells, 24 hours compound treatment, range of concentrations"}
{"compound": "CCOC(=O)c1ccccc1C(=O)OCC", "note": "[Diethyl Phthalate]", "Cell Number Result": "Decrease"}
{"compound": "CC(O)C(=O)O", "note": "(centres unmarked) [Lactic Acid]", "Cell Number Result": "Decrease"}
{"compound": "C=CC(=O)OCCO", "note": "[2hydroxyethylacrylate]", "Cell Number Result": "Increase"}
{"compound": "CC(C)=O", "note": "[Acetone]", "Cell Number Result": "Decrease"}
{"compound": "CN(C)C=O", "note": "[DMF]", "Cell Number Result": "Increase"}
{"compound": "O=CC=O", "note": "[Glyoxal]", "Cell Number Result": "Decrease"}
{"compound": "Butanol", "Cell Number Result": "Increase"}
{"compound": "CC(C)=CCC/C(C)=C/CO", "note": "[Geraniol]", "Cell Number Result": "Increase"}
{"compound": "C[S+](C)[O-]", "note": "[DMSO]", "Cell Number Result": "Increase"}
{"compound": "CCCCCCCCCCCCOS(=O)(=O)[O-].[Na+]", "note": "[Sodium Lauryl Sulfate]", "Cell Number Result": "Increase"}
{"compound": "CCCCCCCC(=O)O", "note": "[Octanoic Acid]", "Cell Number Result": "Increase"}
{"compound": "CCCCCCCC/C=C\\CCCCCCCC(=O)OCCOCC(OCCO)C1OCC(OCCO)C1OCCO", "note": "(centres unmarked) [Tween 80]", "Cell Number Result": "Increase"}
{"compound": "Nc1ccccc1O", "note": "[2-aminophenol]", "Cell Number Result": "Increase"}
{"compound": "CCOc1cc(C=O)ccc1O", "note": "[Ethyl Vanillin]", "Cell Number Result": "Decrease"}
{"compound": "CC(O)CO", "note": "(centres unmarked) [Propylene Glycol]", "Cell Number Result": "Flat"}
{"compound": "O=Cc1ccccc1", "note": "[Benzylaldehyde]", "Cell Number Result": "Increase"}
{"compound": "O=C(O)c1ccccc1O", "note": "[Salicylic Acid]", "Cell Number Result": "Decrease"}
{"compound": "NCCNc1ccccc1", "note": "[Phenylethylenediamine]", "Cell Number Result": "Increase"}
{"compound": "CCO", "note": "[Ethanol]", "Cell Number Result": "Increase"}
{"tested_on": "U937 cells", "experiment": "High-content imaging skin sensitizing prediction assay: U937 cells treated 24 h with a range of compound concentrations, CD54 intensity per cell and cell number dose response curves qualified, decision matrix applied", "details": "skin sensitivity prediction from decision matrix of FIG. 8 (CD54/cell vs cell number); Toxic* = at concentrations tested"}
{"compound": "CCOC(=O)c1ccccc1C(=O)OCC", "note": "[Diethyl Phthalate]", "Outcome": "Toxic*"}
{"compound": "CC(O)C(=O)O", "note": "(centres unmarked) [Lactic Acid]", "Outcome": "Toxic*"}
{"compound": "C=CC(=O)OCCO", "note": "[2hydroxyethylacrylate]", "Outcome": "Sensitizer"}
{"compound": "CC(C)=O", "note": "[Acetone]", "Outcome": "Sensitizer"}
{"compound": "O=CC=O", "note": "[Glyoxal]", "Outcome": "Sensitizer"}
{"compound": "OCC(O)CO", "note": "[Glycerol]", "Outcome": "Non-sensitizer"}
{"compound": "CC(C)=CCC/C(C)=C/CO", "note": "[Geraniol]", "Outcome": "Sensitizer"}
{"compound": "CCCCCCCCCCCCOS(=O)(=O)[O-].[Na+]", "note": "[Sodium Lauryl Sulfate]", "Outcome": "Sensitizer"}
{"compound": "CCCCCCCC(=O)O", "note": "[Octanoic Acid]", "Outcome": "Sensitizer"}
{"compound": "CCCCCCCC/C=C\\CCCCCCCC(=O)OCCOCC(OCCO)C1OCC(OCCO)C1OCCO", "note": "(centres unmarked) [Tween 80]", "Outcome": "Non-sensitizer"}
{"compound": "Nc1ccccc1O", "note": "[2-aminophenol]", "Outcome": "Sensitizer"}
{"compound": "CC(O)CO", "note": "(centres unmarked) [Propylene Glycol]", "Outcome": "Non-sensitizer"}
{"compound": "CC(C)O", "note": "[Isopropanol]", "Outcome": "Non-sensitizer"}
{"compound": "O=Cc1ccccc1", "note": "[Benzylaldehyde]", "Outcome": "Sensitizer"}
{"compound": "N#CCCC(Br)(C#N)CBr", "note": "(centres unmarked) [2bromo-2bromomethylglutaronitrile]", "Outcome": "Toxic*"}
{"compound": "O=C(O)c1ccccc1O", "note": "[Salicylic Acid]", "Outcome": "Toxic*"}
{"compound": "NCCNc1ccccc1", "note": "[Phenylethylenediamine]", "Outcome": "Non-sensitizer"}
{"compound": "CCO", "note": "[Ethanol]", "Outcome": "Non-sensitizer"}
{"tested_on": "U937 cells", "experiment": "not given", "details": "not given"}
{"compound": "CN(C)C=O", "note": "[DMF]", "Outcome": "Sensitizer"}
{"compound": "C[S+](C)[O-]", "note": "[DMSO]", "Outcome": "Non-sensitizer"}
{"compound": "CCOc1cc(C=O)ccc1O", "note": "[Ethyl Vanillin]", "Outcome": "Toxic*"}
